Experimental data taken from US9408873B2, “Pharmaceutical composition comprising stem cells treated with NOD2 agonist or culture thereof for prevention and treatment of immune disorders and inflammatory diseases” (KANG STEM BIOTECH CO., LTD., priority 2010, dated 2016).
Entries after “also recorded” stand apart in the source; their conditions may differ.

Experiments:
human MNC = experiment: Human MNC proliferation under direct cell to cell contact with hUCB-MSC; type: cell-based; details: direct cell to cell interaction
From the text: In the present experiment, the inventors investigated whether TLR and NLR agonists enhance the suppressive activity of hUCB-MSC against human […] proliferation. Based on the study that identified the importance of a direct interact ion between MSCs and lymphocytes in inhibition of lymphocyte proliferation by MSCs, the present inventors investigated whether MDP has an effect on the suppressive ability of hUCB-MSCs against MNC proliferation under the conditions where two cell groups are in contact with each other.

MNC = MNC proliferation in culture medium/supernatant of agonist-treated hUCB-MSC; type: cell-based, human; details: for MNC proliferation in culture medium of agonist-treated hUCB-MSC: hUCB-MSC #618, MNC cultured 3 days
Protocol: Soluble factors are also known to mediate immunosuppression by MSC. So the present inventors examined whether secretory factors generated by UCB-MSCs have an effect on human MNC proliferation. Culture medium (CM) was prepared, and hUCB-MSCs were co-cultured with the agonist for 24 hours. After washing, the cells were cultured fresh for additional […]. Then, a control group containing culture medium (CM) and sample of hUCB-MSCs treated with agonist (#613) were prepared, and MNCs were cultured in CM containing hUCB-MSCs for 3 days.
To determine whether MDP enhances the immunosuppressive activity of in UCB-MSC, the following experiment was performed. A control group containing culture medium (CM) of hUCB-MSC was prepared and the agonist-treated hUCB-MSCs were collected on the 5th day of culturing. Then, MNC was co-cultured in CM of hUCB-MSC for 3 days more, and after culturing, the level of MNC proliferation was monitored.
Additionally, to investigate the correlation among NOD2, Rip2 and MDP in MNC inhibition, the following experiment was conducted using siRNAs of […] and Rip2 and a control group (siCTL). When the cell density reached 60%, siRNAs were transfected into the cells. The siRIPK2 (M-003602-02) which is the siRNA of receptor-interacting serine-threonine kinase 2 (RIPK2 or receptor interacting kinase protein 2 (Rip2) which is the adaptor of […] and NOD2 and the type of kinase called RICK or CARDIAK (Bertin et al, 1999; Inohara et al, 1999; Ogura et al, 2001b)), siNOD2 (J-011338-07) which is the siRNA of NOD2, and a non-targeting control (siControl #1, D-001810-01) were purchased from Dharmacon (Chicago, Ill., USA). DharmaFECT1 (Dharmacon) was used as a transfection reagent, and siRNA was transfected at a concentration of 100 nmol/L. About 48 hours later, the medium was replaced with the fresh one, and the cells were treated with 10 μg/mL of MDP (NOD2 agonist) for 24 hours, except for a negative control (culture medium of MNC only) and a positive control (medium added with UCB-MSC supernatant (UMS) without agonist).
That is, a medium where MNC was cultured alone (i), and a medium added with UCB-MSC supernatant (UMS) without agonist (ii) were prepared as control groups, and a medium treated with MDP and UMS (iii), a medium treated with MDP, UMS, and control siRNA (siCTL) (iv), a medium treated with MDP, UMS and siNOD2 (v), and a medium treated with MDP, UMS, and siRip2 (vi) were prepared. Thereafter, MNC proliferation was measured by optical density at the wavelength of 450 nm.
In order to investigate the role of PGE2 in inhibition of MNC by hUCB-MSC, MNC proliferation was examined when treated with the MSC supernatant, MDP-treated MSC supernatant, and MDP and indomethacin (COX-2 inhibitor)-treated MSC supernatant. The experiment was performed by the same method described in Example 3.

hUCB-MSCs [1] = experiment: IL-8 production in hUCB-MSCs after stimulation by receptor agonists (ELISA); type: cell-based, human; details: 24 hours with agonist
Protocol: After conforming the expression of the receptors of interest in hUCB-MSC in Example 2-1, the functionality of the receptors investigated by monitoring IL-8 production after stimulation by agonists. For this experiment, hUCB-MSCs were cultured at a density of 2×10^4 cells/well in KSFM medium supplemented with 2% FBS in a 96-well plate. After 24 hours of culturing, the cells were treated with the following agonists corresponding to each of the receptors, i.e., Pam3CSK4 (TLR2 agonist, Pam3), LPS (TLR4 agonist), Tri-DAP (NOD1 agonist, T-DAP), and MDP (NOD2 agonist). Then the samples were incubated for additional 24 hours. The supernatant of each culture was collected, centrifuged, and filtered through a 0.2 μm filter. Then, concentrations of IL-8 and PGE2 were measured using an ELISA kit (R&D Systems, Minneapolis, Minn., USA). Ultrapure LPS (E. coli O111:B4), Pam3CSK4, and Tri-DAP were purchased from Invivogen (San Diego, Calif., USA), MDP [Ac-(6-O-stearoyl)-muramyl-Ala-D-Glu-NH2; muramyl dipeptide] was purchased from Bachem (Bubendorf, Switzerland). Recombinant human Interferon-γ was purchased from Peprotech (Rockyhill, N.J., USA).

hUCB-MSCs [2] = experiment: PGE2 secretion by hUCB-MSCs (ELISA); type: cell-based, human
Protocol: The hUCB-MSCs (2×10^4 cells/well) were cultured in MSC medium supplemented with 2% FBS in a 96-well plate. After 24 hrs of culturing, the cells were treated with 1 μg/mL Pam3CSK4 (TLR2 agonist), 1 μg/mL LPS (TLR4 agonist), 10 μg/mL Tri-DAP (NOD1 agonist) or 10 μg/mL MDP (NOD2 agonist) and cultured for additional 24 hours, then the culture supernatant of each sample was collected. After centrifugation, the culture supernatants were filtered through a 0.2 μm filter. Then, PGE2 concentration was measured using an ELISA kit (R&D Systems, Minneapolis, Minn., USA) following the manufacture's protocol.
To determine the sustainment time of the effects of MDP treatment, the amount of PEG2 produced was monitored after 1 day-long treatment of hUCB-MSCs with MDP. In this experiment, MDP was removed after 1 day of culturing by removing the culture medium and washing the cells with phosphate buffered saline (PBS) 5 times. Then the amount of PEG2 produced was measured. Meanwhile, cells were treated with MDP by the same method described in Example 5-1, and PGE2 concentration was measured. Also, in order to determine the effects of NOD2, Rip2 and COX-2 on PGE2 expression, the cells were treated with each of the control group of Example 3-3 i.e. siRNA (siCTL), siNOD2, siRip2 and COX-2 inhibitor called indomethacin (Sigma (St. Louis, Mo., USA).
(§1) Soluble factors such as hepatocyte growth factor, TGF-β1, indoleamine 2,3 dioxygenase-1 (IDO-1), nitric oxide (NO), and prostaglandin E2 (PGE2) are the strong candidates for regulating immunosuppression by MSC. In order to determine whether TLR and NLR agonists induce the production of soluble factors including NO, PGE2 and TGF-β1 in hUCB-MSCs, the cells were cultured with Pam3CSK4, LPS, Tri-DAP, and MDP for 24 hours, and culture supernatants were collected. Secretion of the soluble factors was monitored by the method described in Examples 5-1 and 5-2.

hMNCs = experiment: Treg population (CD4, CD25, Foxp3) in hMNCs cultured with UCM, flow cytometry; type: cell-based, human
Protocol: Next, the present inventors investigated the effect of UCM on differentiation of hMNC into regulatory T cells (Treg). For this, hMNCs were cultured with UCM for 5 days, and co-expression of CD4, CD25, and Foxp3 in hMNCs was determined by Flow cytometry.

hMNC [3] = experiment: IL-10 production by MNC cultured with UCB-MSC supernatant and ConA (ELISA); type: cell-based, human
Protocol: In order to determine the production level of IL-10, hUCB-MSCs (1×10^5 cells/well) were cultured in MSC medium supplemented with 2% FBS in a 24 well plate. About 24 hours later, the cells were treated with siNOD2 or indomethacin (Indo), and further cultured for 24 hours. Then the cells were washed five times, and fresh RPMI was added. After 5 days of culturing, UCB-MSC supernatant (UMS) was obtained. MNCs (1×10^6/well) were cultured with UMS and ConA (Sigma (St. Louis Mo., USA)). After 3 days of culturing, cell supernatant was collected, centrifuged, and filtered through a 0.2 μm filter. Then, IL-10 concentration was measured using an ELISA kit (R&D Systems, Minneapolis, Minn., USA).
PGE2 produced in bone marrow stromal cells is known to take an important role in IL-10 production by host macrophages (Nemeth, K., A. et al., Bone marrow stromal cells attenuate sepsis via prostaglandin E(2)-dependent reprogramming of host macrophages to increase their interleukin-10 production. Nat Med 15:42-49, 2009). MDP induces PGE2 production in hUCB-MSCs, and thus the present inventors examined whether IL-10 production in hMNCs is increased in the presence of MDP-UCM. The experiment was performed by the same method described in Example 5-6.

mouse splenocytes [4] = experiment: Mouse splenocyte proliferation cultured with PGE2; type: cell-based; details: PGE2 at a concentration of 10 ng/mL or higher
Protocol: (§2) In order to investigate the effect of PGE2 on mononuclear cell (MNC) proliferation, hMNC and mouse splenocytes were cultured with various concentrations of PGE2. The experiment was performed by the same method described in Example 5-5.

hMNC [5] = experiment: hMNC proliferation cultured with PGE2; type: cell-based, human; details: PGE2 at a concentration of 10 ng/mL or higher
Protocol: as §2

COX-2 = COX-2 expression in hUCB-MSCs (immunoblot); type: cell-based, human; details: 24 hours with agonist
Protocol: Cells were treated with 1 μg/mL Pam3CSK4 (TLR2 agonist), 1 μg/mL LPS (TLR4 agonist), 10 μg/mL Tri-DAP (NOD1 agonist) or 10 μg/mL MDP (NOD2 agonist) and cultured for 24 hours. Then, the collected cells were lysed using 1% Nonidet-P40 buffer containing 2 mM dithiothreitol and protease cocktail (Roche, US). The cell lysates were resolved by 12% SDS-PAGE, and transferred onto a nitrocellulose membrane. Then, immunostaining was performed using primary antibodies (COX-2, GAPDH (Santa Cruz biotechnology, Santa Cruz, Calif., USA)). Thereafter, immunostaining was performed using secondary antibodies, and proteins were detected using an enhanced chemiluminescence (ECL) reagent (Intron Biotechnology).
To investigate a correlation between COX-2 expression and the function of NOD2 and Rip2, cells were first treated with MDP and further treated with siNOD2 and siRip2. Then the COX-2 expression level was examined. Protein expression level was measured by using the method described in Example 5-2, and the method for siRNA treatment was the same as described in Example 3-3.

mouse splenocytes [6] = experiment: Xenogeneic mouse splenocyte proliferation in hUCB-MSC culture medium; type: cell-based
hUCB-MSCs [7] = experiment: TGF-β1 production by hUCB-MSCs; type: cell-based, human; details: 24 hours with agonist
Protocol: as §1

C[C@H](N)C(=O)N[C@H](CCC(=O)NC(CCCC(N)C(=O)O)C(=O)O)C(=O)O (stereo partly shown) [Tri-DAP, Tri-diaminopimelic Acid]
effect of agonist on suppressive activity of hUCB-MSCs against MNC proliferation (human MNC): did not affect the suppressive activity of hUCB-MSCs against MNC proliferation | MNC proliferation in culture medium of agonist-treated hUCB-MSC (MNC): this effect was absent | MNC proliferation in culture medium of agonist-treated hUCB-MSC (MNC; listed as T-DAP): only slightly inhibited | IL-8 production (hUCB-MSCs [1]): increased IL-8 production in hUCB-MSCs in a dose-dependent manner

COc1ccc2c(c1)c(CC(=O)O)c(C)n2C(=O)c1ccc(Cl)cc1 [indomethacin]
effect on MDP-enhanced PGE2 production (hUCB-MSCs [2]; hUCB-MSCs / MDP-UCM): MDP-enhanced PGE2 production was inhibited | effect on the inhibition of MNC proliferation by MDP-treated MSC culture medium (MDP-UCM) (MNC; co-treatment or siRNA of hUCB-MSC): MNC proliferation rate similar to that of the negative control group; also recorded: counteracted | effect on the increase in Treg population by MDP-UCM (hMNCs): reversed | effect on MDP-increased IL-10 production by MNC (hMNC [3]): IL-10 production was suppressed; also recorded: reversed

Pam3CSK4
effect of agonist on suppressive activity of hUCB-MSCs against MNC proliferation (human MNC): did not affect the suppressive activity of hUCB-MSCs against MNC proliferation | MNC proliferation in culture medium of agonist-treated hUCB-MSC (MNC): this effect was absent | MNC proliferation in culture medium of agonist-treated hUCB-MSC (MNC; listed as Pam3): only slightly inhibited | IL-8 production (hUCB-MSCs [1]): increased IL-8 production in hUCB-MSCs in a dose-dependent manner

CCCCC[C@H](O)/C=C/[C@H]1[C@H](O)CC(=O)[C@@H]1C/C=C\CCCC(=O)O [PGE2, (5Z, 11(alpha),13E,15S)-11,15-dihydroxy-9-oxo-prosta-5,13-dien-1-oic acid]
proliferation of mouse splenocytes (mouse splenocytes [4]): remarkably inhibited | proliferation of hMNC (hMNC [5]): remarkably inhibited

CCCCCCCCCCCCCCCCCC(=O)OCC1OC(O)C(NC(C)=O)C(OC(C)C(=O)NC(C)C(=O)NC(CCC(=O)O)C(N)=O)C1O [MDP, Ac-(6-O-stearoyl)-muramyl-Ala-D-Glu-NH2]
effect of agonist on suppressive activity of hUCB-MSCs against MNC proliferation (human MNC): did not affect the suppressive activity of hUCB-MSCs against MNC proliferation | PGE2 production level after removal of MDP (hUCB-MSCs [2]; MDP removed after 1 day, 5th day of culturing): greater than that in the control group | PGE2 secretion (hUCB-MSCs [2]; hUCB-MSCs, 24 hours with agonist (MDP 10 μg/mL)): significantly enhanced PGE2 secretion; also recorded: enhanced only by addition of MDP | COX-2 expression (COX-2): enhanced COX-2 expression; also recorded: increased | IL-10 production by MNC (hMNC [3]; MNC cultured 3 days with UCB-MSC supernatant and ConA): remarkably increased | proliferation of xenogeneic mouse splenocytes in UCM (mouse splenocytes [6]): this inhibitory effect was enhanced by MDP stimulation | TGF-β1 production (hUCB-MSCs [7]): enhanced only by addition of MDP | IL-8 production (hUCB-MSCs [1]): increased IL-8 production in hUCB-MSCs in a dose-dependent manner
